The values that follow come from ChEMBL document CHEMBL3861976, “Phthalide Derivatives with Anticoagulation Activities from Angelica sinensis” (J Nat Prod, 2016).

Holding throughout (assay type): functional, cell-free
The species named for experiment [1] is Oryctolagus cuniculus. The experiment in a line: Anticoagulant activity in New Zealand White rabbit plasma assessed as decrease in fibrinogen level at 1 mM after 3 mins.
Experiment [2] is filed under the species Oryctolagus cuniculus. The experiment in a line: Anticoagulant activity in New Zealand White rabbit plasma assessed as prolongation of thrombin time at 1 mM incubated for 3 mins followed by thrombin addition.
The species entered for experiment [3] is Oryctolagus cuniculus. The experiment in a line: Anticoagulant activity in New Zealand White rabbit plasma assessed as prolongation of activated partial thromboplastin time at 1 mM after 1 min.

SMILES strings stand for the structures. Calls of active or inactive are those of the source. The calls are words filed in the database; no cut-off is given here.

Take `CCC/C=C1\OC(=O)C2=C1CC[C@@H]1[C@@H]3CCC4=C(C(=O)OC45[C@H](CCC)[C@@H](CCC)[C@@]54OC(=O)C5=C4CCC=C5)[C@@H]3[C@H]21` (some centres undefined): the result in the experiment listed under Oryctolagus cuniculus [1] was Active.

As to `CCCCC(=O)[C@]12CC[C@H](C=C1C(=O)OC)[C@@H](CCC)[C@@]21OC(=O)C2=C[C@H]3CC[C@]21OO3`, the result in the experiment filed under Oryctolagus cuniculus [1], in the experiment filed under Oryctolagus cuniculus [2] and in the experiment filed under Oryctolagus cuniculus [3] was Active.
